Where two headings read alike, the source gives them in different places.
Tests used:
CB1 = conditions: ref [4], [60], cited from earlier work; for EC50: earlier in vitro data, read-out: EC 50 at CB1; for E max at CB1: normalized to CP55,940
CB1 receptor = CB1 receptor (Homo sapiens, UniProt P21554); experiment: NanoBiT βarr2 recruitment bioassay at CB1 (HEK 293T cells stably expressing CB1‐βarr2); conditions: for E max at CB1: normalized to E max of CP55,940 (set at 100%)
CB2 receptor = CB2 receptor (Homo sapiens, UniProt P34972); experiment: NanoBiT βarr2 recruitment bioassay at CB2 (HEK 293T cells stably expressing CB2‐βarr2); conditions: for E max at CB2: normalized to E max of CP55,940 (set at 100%)
Sequence of CB2 receptor (P34972 whole entry): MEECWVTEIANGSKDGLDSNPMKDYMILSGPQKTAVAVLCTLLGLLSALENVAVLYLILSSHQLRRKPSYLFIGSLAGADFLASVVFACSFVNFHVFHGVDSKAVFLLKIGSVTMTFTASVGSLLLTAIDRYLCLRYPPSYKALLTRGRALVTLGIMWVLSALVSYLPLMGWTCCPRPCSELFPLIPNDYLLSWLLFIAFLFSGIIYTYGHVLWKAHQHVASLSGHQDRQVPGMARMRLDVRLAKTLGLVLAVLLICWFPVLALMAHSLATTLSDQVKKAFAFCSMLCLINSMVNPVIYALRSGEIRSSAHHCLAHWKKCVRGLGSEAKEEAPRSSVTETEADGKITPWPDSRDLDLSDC
Sequence of CB2 receptor (P32121 whole entry partner): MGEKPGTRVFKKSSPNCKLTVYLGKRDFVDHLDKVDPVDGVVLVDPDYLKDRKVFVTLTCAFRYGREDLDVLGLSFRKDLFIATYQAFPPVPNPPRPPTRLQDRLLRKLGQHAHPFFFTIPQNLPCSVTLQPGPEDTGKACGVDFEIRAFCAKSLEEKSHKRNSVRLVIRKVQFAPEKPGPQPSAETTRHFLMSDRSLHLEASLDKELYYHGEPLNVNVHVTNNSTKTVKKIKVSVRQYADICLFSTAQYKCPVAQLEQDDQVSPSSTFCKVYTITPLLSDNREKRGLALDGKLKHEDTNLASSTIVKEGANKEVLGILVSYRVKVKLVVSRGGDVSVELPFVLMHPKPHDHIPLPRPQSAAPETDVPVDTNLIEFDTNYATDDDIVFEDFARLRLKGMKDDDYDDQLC

Sequence of CB1 receptor (P21554 whole entry): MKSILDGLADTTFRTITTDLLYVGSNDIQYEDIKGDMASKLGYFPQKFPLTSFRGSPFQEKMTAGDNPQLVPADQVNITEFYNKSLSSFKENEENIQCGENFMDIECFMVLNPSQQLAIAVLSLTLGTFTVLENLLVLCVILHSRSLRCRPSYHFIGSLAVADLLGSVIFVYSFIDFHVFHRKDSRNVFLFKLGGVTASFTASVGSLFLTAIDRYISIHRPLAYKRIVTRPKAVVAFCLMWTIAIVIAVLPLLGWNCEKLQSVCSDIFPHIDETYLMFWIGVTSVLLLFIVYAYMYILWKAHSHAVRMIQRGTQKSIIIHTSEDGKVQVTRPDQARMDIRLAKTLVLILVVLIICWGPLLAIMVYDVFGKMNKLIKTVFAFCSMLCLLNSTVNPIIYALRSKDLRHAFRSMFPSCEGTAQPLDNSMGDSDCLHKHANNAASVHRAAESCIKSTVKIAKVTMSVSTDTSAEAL
Sequence of CB1 receptor (P32121 whole entry partner): as the sequence (P32121 whole entry partner) above

Row | SMILES | EC50 (CB1) [µM] | E max at CB1 (CB1) [%] | E max at CB1 (CB1 receptor; interval in brackets) | EC50 (CB1 receptor; read-out: EC 50 at CB1, βarr2 recruitment, three‐parameter logistic fit, interval in brackets) [µM] | E max at CB2 (CB2 receptor; interval in brackets) | EC50 (CB2 receptor; read-out: EC 50 at CB2, βarr2 recruitment, three‐parameter logistic fit, interval in brackets) [µM] | EC50 (CB1 receptor) [µM] | EC50 (CB2 receptor) [µM]
1 | CCCCn1nc(C(=O)N[C@H](C(N)=O)C(C)(C)C)c2ccccc21 [ADB‐BUTINACA] | 0.019 | 728 |  |  |  |  |  | 
2 | CCCCCn1cc(C(=O)c2cccc3ccccc23)c2ccccc21 [JWH‐018] |  |  | 342 (300–385) % | 0.0188 | 71.9 (66–77.9) % | 0.0059 |  | 
3 | C=CCCCn1nc(C(=O)N[C@H](C(=O)OC)C(C)(C)C)c2ccccc21 [MDMB‐4en‐PINACA] | 0.00188 | 679 |  |  |  |  |  | 
4 | COC(=O)[C@@H](NC(=O)c1n[nH]c2ccccc12)C(C)(C)C [MDMB‐INACA] |  |  | 268 (233–305) % |  | 150 (134–167) % |  | 6.81 | 0.0552

— paper PMC12209699, “Waxy‐ or Putty‐Like Materials as a Novel Drug Preparation for Synthetic Cannabinoid Receptor Agonists: Detection in Prisons and In Vitro Cannabinoid Receptor Activity” (Drug Testing and Analysis, 2024)
